Test results as given in patent US7109193B2, “Tricyclic diazepines tocolytic oxytocin receptor antagonists” (Wyeth, priority 2001, dated 2006).

Target: T1, human vasopressin V2 receptor subtype (Homo sapiens, UniProt P30518)
T1 construct: host or cells: CHO cells (pZeoSV vector)
Assay: Vasopressin binding in Chinese Hamster Ovary cell membranes expressing human vasopressin V2 subtype receptors
Conditions: 100 nM, CHO cell membranes, [3H]arginine vasopressin, values without parentheses
Summary of the method: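 Radioligand displacement on membranes from CHO cells stably expressing human V2 receptor, 25 to 50 μg protein/well, in 50 mM Tris-HCl pH 7.4 with MgCl2, BSA and protease inhibitors. [^3H]arginine vasopressin (8 nM working solution) incubated 60 min at room temperature; bound label measured by filtration and scintillation counting.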

Row | inhibition at 0.1 µM [%] | Compound | V2 % inhibition @ 100 nM [%]
1 | 8 | Cc1ccccc1-c1ccc(C(=O)N2Cc3ccc(C(=O)N4CCC(N5CCCC5)CC4)n3Cc3ccccc32)cc1 [Example 141, {10-[(2′-Methyl[1,1′-biphenyl]-4-yl)carbonyl]-10,11-dihydro-5H-pyrrolo[2,1-c][1,4]benzodiazepin-3-yl}[4-(1-pyrrolidinyl)-1-piperidinyl]methanone] | –
2 | 9 | COc1cc(C(=O)N2Cc3ccc(C(=O)NCCN4CCCCC4)n3Cc3ccccc32)ccc1-c1ccccc1C [Example 154, 10-[(2-Methoxy-2′-methyl[1,1′-biphenyl]4-yl)carbonyl]-N-[2-(1-piperidinyl)ethyl]-10,11-dihydro-5H-pyrrolo[2,1-c][1,4]benzodiazepine-3-carboxamide] | –
3 | 16 | COc1ccccc1-c1ccc(C(=O)N2Cc3ccc(C(=O)NCCCn4ccnc4)n3Cc3ccccc32)cc1OC [Example 132, 10-[(2,2′-Dimethoxy[1,1′-biphenyl]-4-yl)carbonyl]-N-[3-(1H-imidazol-1-yl)propyl]-10,11-dihydro-5H-pyrrolo[2,1-c][1,4]benzodiazepine-3-carboxamide] | –
4 | 13 | COc1cc(C(=O)N2Cc3ccc(C(=O)NCCCn4ccnc4)n3Cc3ccccc32)ccc1-c1cccc2ccccc12 [Example 131, N-[3-(1H-Imidazol-1-yl)propyl]-10-[3-methoxy-4-(1-naphthyl)benzoyl]-10,11-dihydro-5H-pyrrolo[2,1-c][1,4]benzodiazepine-3-carboxamide] | –
5 | 15 | COc1cc(-c2ccccc2C)c(Cl)cc1C(=O)N1Cc2ccc(C(=O)NCCN3CCCCC3)n2Cc2ccccc21 [Example 155, 10-[(6-Chloro-3-methoxy-2′-methyl[1,1′-biphenyl]-4-yl)carbonyl]-N-[2-(1-piperidinyl)ethyl]-10,11-dihydro-5H-pyrrolo[2,1-c][1,4]benzodiazepine-3-carboxamide] | –
6 | 3 | COc1cc(C(=O)N2Cc3ccc(C(=O)N4CCC(N5CCCC5)CC4)n3Cc3ccccc32)ccc1-c1cccc2ccccc12 [Example 144, {10-[3-Methoxy-4-(1-naphthyl)benzoyl]-10,11-dihydro-5H-pyrrolo[2,1-c][1,4]benzodiazepin-3-yl}[4-(1-pyrrolidinyl)-1-piperidinyl]methanone] | –
7 | 1 | Cc1cc(C(=O)N2Cc3ccc(C(=O)N4CCC(N5CCCC5)CC4)n3Cc3ccccc32)ccc1-c1ccccc1C(F)(F)F [Example 148, (10-{[2-Methyl-2′-(trifluoromethyl)[1,1′-biphenyl]-4-yl]carbonyl}-10,11-dihydro-5H-pyrrolo[2,1-c][1,4]benzodiazepin-3-yl)[4-(1-pyrrolidinyl)-1-piperidinyl]methanone] | –
8 | 8 | COc1cccc(-c2ccc(C(=O)N3Cc4ccc(C(=O)NCCCn5ccnc5)n4Cc4ccccc43)cc2OC)c1 [Example 133, 10-[(2,3′-Dimethoxy[1,1′-biphenyl]4-yl)carbonyl]-N-[3-(1H-imidazol-1-yl)propyl]-10,11-dihydro-5H-pyrrolo[2,1-c][1,4]benzodiazepine-3-carboxamide] | –
9 | 29 | Cc1ccccc1-c1ccc(C(=O)N2Cc3ccc(C(=O)N4CCC(N5CCCC5)CC4)n3Cc3ccccc32)cc1C [Example 138, {10-[(2,2′-Dimethyl[1,1′-biphenyl]-4-yl)carbonyl]-10,11-dihydro-5H-pyrrolo[2,1-c][1,4]benzodiazepin-3-yl}[4-(1-pyrrolidinyl)-1-piperidinyl]methanone] | –
10 | -4 | COc1ccccc1-c1ccc(C(=O)N2Cc3ccc(C(=O)N4CCC(N5CCCC5)CC4)n3Cc3ccccc32)cc1C [Example 137, {10-[(2′-Methoxy-2-methyl[1,1′-biphenyl]-4-yl)carbonyl]-10,11-dihydro-5H-pyrrolo[2,1-c][1,4]benzodiazepin-3-yl}[4-(1-pyrrolidinyl)-1-piperidinyl]methanone] | –
11 | 20 | O=C(c1ccc2n1Cc1ccccc1N(C(=O)c1ccc(-c3cccc4ccccc34)cc1Cl)C2)N1CCC(N2CCCC2)CC1 [Example 147, {10-[2-Chloro-4-(1-naphthyl)benzoyl]-10,11-dihydro-5H-pyrrolo[2,1-c][1,4]benzodiazepin-3-yl}[4-(1-pyrrolidinyl)-1-piperidinyl]methanone] | –

The remaining lines, values behind:

Row | Compound | inhibition at 0.1 µM [%] | V2 % inhibition @ 100 nM [%]
12 | COc1cc(C(=O)N2Cc3ccc(C(=O)N4CCC[C@H]4CN4CCCC4)n3Cc3ccccc32)ccc1-c1ccccc1Cl [Example 33, {[10-(2-Methoxy)-2′-chloro-[1,1′-biphenyl]-4-yl]carbonyl}-[(2S)-[(2-pyrrolidin-1-yl)methyl]pyrrolidin-1-yl]-10,11-dihydro-5H-pyrrolo[2,1-c][1,4]benzodiazepin-3-yl-methanone] | – | 11
13 | COc1ccccc1-c1ccc(C(=O)N2Cc3ccc(C(=O)N(C)CCCN(C)C)n3Cc3ccccc32)cc1OC [Example 107, 10-[(2,2′-Dimethoxy[1,1′-biphenyl]-4-yl)carbonyl]-N-[3-(dimethylamino)propyl]-N-methyl-10,11-dihydro-5H-pyrrolo[2,1-c][1,4]benzodiazepine-3-carboxamide] | 19 | –
14 | COc1cc(C(=O)N2Cc3ccc(C(=O)N4CCC[C@H]4CN4CCCC4)n3Cc3ccccc32)ccc1-n1c(C)ccc1C [Example 321, {10-[4-(2,5-Dimethyl-1H-pyrrol-1-yl)-3-methoxybenzoyl]-10,11-dihydro-5H-pyrrolo[2,1-c][1,4]benzodiazepin-3-yl}[(2S)-2-(1-pyrrolidinylmethyl)pyrrolidinyl]methanone] | – | 23
15 | {10-[(2,2′-Dimethoxy[1,1′-biphenyl]-4-yl)carbonyl]-10,11-dihydro-5H-pyrrolo[2,1-c][1,4]benzodiazepin-3-yl}(4-isopropyl-1-piperazinyl)methanone [Example 244] | – | 9
16 | COc1cccc(-c2ccc(C(=O)N3Cc4ccc(C(=O)NCCC5CCCN5C)n4Cc4ccccc43)cc2C)c1 (centres unmarked) [Example 164, 10-[(3′-Methoxy-2-methyl[1′1′-biphenyl]-4-yl)carbonyl]-N-[2-(1-methyl-2-pyrrolidinyl)ethyl]-10,11-dihydro-5H-pyrrolo[2,1-c][1,4]benzodiazepine-3-carboxamide] | – | 16
17 | COc1cccc(-c2ccc(C(=O)N3Cc4ccc(C(=O)N5CCC(N6CCCCC6)CC5)n4Cc4ccccc43)cc2OC)c1 [Example 120, {10-[(2,3′-Dimethoxy-[1,1′-biphenyl]-4-yl)carbonyl]-10,11-dihydro-5H-pyrrolo[2,1-c][1,4]benzodiazepin-3-yl}[4-(1-piperidinyl)-1-piperidinyl]methanone] | 6 | –
18 | COc1cc(C(=O)N2Cc3ccc(C(=O)N(C)CCCN(C)C)n3Cc3ccccc32)ccc1-n1c(C)ccc1C [Example 310, N-[3-(Dimethylamino)propyl]-10-[4-(2,5-dimethyl-i H-pyrrol-1-yl)-3-methoxybenzoyl]-N-methyl-10,11-dihydro-5H-pyrrolo[2,1-c][1,4]benzodiazepine-3-carboxamide] | – | 12
19 | COc1ccccc1-c1ccc(C(=O)N2Cc3ccc(C(=O)NCCCn4ccnc4)n3Cc3ccccc32)cc1 [Example 126, N-[3-(1H-Imidazol-1-yl)propyl]-10-[(2′-methoxy[1,1′-biphenyl]-4-yl)carbonyl]-10,11-dihydro-5H-pyrrolo[2,1-c][1,4]benzodiazepine-3-carboxamide] | 18 | –
20 | Cc1ccccc1-c1ccc(C(=O)N2Cc3ccc(C(=O)NCCCn4ccnc4)n3Cc3ccccc32)cc1C [Example 124, 10-[(2,2′-Dimethyl[1,1′-biphenyl]-4-yl)carbonyl]-N-[3-(1H-imidazol-1-yl)propyl]-10,11-dihydro-5H-pyrrolo[2,1-c][1,4]benzodiazepine-3-carboxamide] | 21 | –
21 | Cc1ccccc1-c1ccc(C(=O)N2Cc3ccc(C(=O)N4CCC(N5CCCCC5)CC4)n3Cc3ccccc32)cc1 [Example 115, {10-[(2′-Methyl[1,1′-biphenyl]-4-yl)carbonyl]-10,11-dihydro-5H-pyrrolo[2,1-c][1,4]benzodiazepin-3-yl}[4-(1-piperidinyl)-1-piperidinyl]methanone] | 12 | –
22 | Cc1ccccc1-c1ccc(C(=O)N2Cc3ccc(C(=O)NCCCn4ccnc4)n3Cc3ccccc32)cc1 [Example 127, N-[3-(1H-Imidazol-1-yl)propyl]-10-[(2′-methyl[1,1′-biphenyl]-4-yl)carbonyl]-10,11-dihydro-5H-pyrrolo[2,1-c][1,4]benzodiazepine-3-carboxamide] | 3 | –
23 | COc1cc(C(=O)N2Cc3ccc(C(=O)N4CC[C@@H](N(C)C)C4)n3Cc3ccccc32)ccc1-c1cccc2ccccc12 [Example 276, [(3R)-3-(Dimethylamino)pyrrolidinyl]{10-[3-methoxy-4-(1-naphthyl)benzoyl]-10,11-dihydro-5H-pyrrolo[2,1-c][1,4]benzodiazepin-3-yl}methanone] | – | −3
24 | COc1cc(-c2ccccc2C)c(Cl)cc1C(=O)N1Cc2ccc(C(=O)NCCCn3ccnc3)n2Cc2ccccc21 [Example 129, 10-[(6-Chloro-3-methoxy-2′-methyl[1,1′-biphenyl]-4-yl)carbonyl]-N-[3-(1H-imidazol-1-yl)propyl]-10,11-dihydro-5H-pyrrolo[2,1-c][1,4]benzodiazepine-3-carboxamide] | 5 | –
25 | COc1ccccc1-c1ccc(C(=O)N2Cc3ccc(C(=O)N4CCC[C@H]4CN4CCCC4)n3Cc3ccccc32)cc1OC [Example 269, {10-[(2,2′-Dimethoxy[1,1′-biphenyl]-4-yl)carbonyl]-10,11-dihydro-5H-pyrrolo[2,1-c][1,4]benzodiazepin-3-yl}[(2S)-2-(1-pyrrolidinylmethyl)pyrrolidinyl]methanone] | – | −19
26 | CN(C)[C@@H]1CCN(C(=O)c2ccc3n2Cc2ccccc2N(C(=O)c2ccc(-c4cccc5ccccc45)cc2Cl)C3)C1 [Example 277, {10-[2-Chloro-4-(1-naphthyl)benzoyl]-10,11-dihydro-5H-pyrrolo[2,1-c][1,4]benzodiazepin-3-yl}[(3R)-3-(dimethylamino)pyrrolidinyl]methanone] | – | 19
